Data taken from PMC5045383 (Oncotarget, 2016).

Experiments:
[1] = target: FLT3-ITD (ITD+kinase domain); assay: ADP-Glo biochemical assay; settings: ATP final 50 μM
Description: FLT3 wt/FLT3-ITD/FLT3-D835Y cytoplasmic fragment with his tag was cloned into baculovirus expression vector pFASTHT-A. The recombinant bacmid was transfected into SF9 by Cellfectin (Invitrogen). High titer viral stocks were obtained by two rounds of amplification of the virus. The protein was expressed by infecting SF9 cells with high titer viral stocks for 48 h. Cells were harvested and re-suspended in lysis buffer (50 mM Tris pH 7.5, 150 mM NaCl, and 1 mM PMSF). The cells were lysed by ultra sonication and the cell debris was removed by ultracentrifugation. The supernatant was incubated with Ni-affinity beads (GE). The beads were then washed by lysis buffer containing 50–250 mM imidazole. The elute was loaded to superdex 75. The protein was concentrated to 1 mg/ml and aliquots were frozen and stored at −80°C. The protein was used for ADP-Glo™ kinase assay.
The reaction in each tube was started immediately by adding ATP and kept going for an hour under 37°C. After the tube cooled for 5 minutes at room temperature, 5 μL solvent reactions were carried out in a 384-well plate. […] At the end, 10 μL of kinase detection reagent was added into the well and incubated for 30 minutes to produce a luminescence signal. Luminescence signal was measured with an automated plate reader (Perkin-Elmer Envision) and each measurement was performed in triplicate.

[2] = system: MV4-11; assay: Cell cycle analysis (PI, flow cytometry); assay type: cell-based, human; settings: 24 hours
Description: (§1) The cells were fixed in 70% cold ethanol and incubated at −20°C overnight, then stained with PI/RNase staining buffer (BD Pharmingen). Flow cytometry was performed using a FACS Calibur (BD), and results were analyzed by ModFit software.

[3] = system: MOLM14; assay: Cell cycle analysis (PI, flow cytometry); assay type: cell-based, human; settings: 24 hours
Description: as §1

[4] = system: SKM-1 (FLT3-wt); assay: Cell proliferation assay (CellTiter-Glo); assay type: cell-based, human; settings: 72 hours
Description: (§2) Cells were grown in 96-well culture plates (3000/well). […] Cell proliferation was determined after 72 hours drug treatment. […] Cell viability was measured with the CellTiter–Glo assay (Promega, USA), according to the manufacturer's instructions, and luminescence was measured in a multi-label reader (Envision, PerkinElmer, USA). […] GI50 values were calculated using Prism 5.0 (GraphPad Software, San Diego, CA).

[5] = system: HL-60 (FLT3-wt); assay: Cell proliferation assay (CellTiter-Glo); assay type: cell-based, human; settings: 72 hours
Description: as §2

[6] = system: BaF3-TEL-FLT3-wt; assay: Anti-proliferation, BaF3 isogenic cell lines; assay type: cell-based
Description: (§3) Cells were grown in 96-well culture plates (3000/well). […] Cell proliferation was determined after 72 hours drug treatment. […] Cell viability was measured with the CellTiter–Glo assay (Promega, USA), according to the manufacturer's instructions, and luminescence was measured in a multi-label reader (Envision, PerkinElmer, USA). Data were normalized to control groups (DMSO) and represented by the mean of three independent measurements with standard error < 20%. GI50 values were calculated using Prism 5.0 (GraphPad Software, San Diego, CA).
(§4) Retroviral constructs for BaF3-FLT3 mutants were made based on the pMSCVpuro (Clontech) backbone. For TEL-FLT3 vector, the first 1 kb of human TEL gene with an artificial myristoylation sequence ([…]) was cloned into pMSCVpuro retroviral vector, followed by a 3xFLAG tag sequence and a stop codon. Then the kinase domain coding sequence of FLT3 was inserted in-frame between TEL and 3× FLAG sequences. For full-length expression vectors, the coding sequences of FLT3 variants were directly cloned in pMSCVpuro vector with a 3X FLAG tag at the C-terminal end. All mutagenesis studies were performed using the QuikChange Site-Directed Mutagenesis Kit (Stratagene) following the manufacturer's instructions. Retrovirus was packaged in HEK293T cells by transfecting FLT3-containing MSCV vectors together with two helper plasmids, virus supernatants were harvested 48 hours after transfection and filtered before infection. Then BaF3 cells were infected with harvested virus supernatants using spinoculation protocol and stable cell lines were obtained by puromycin selection for 48 hours. The IL-3 concentrations in the culture medium were gradually withdrawn until cells were able to grow in the absence of IL-3.

[7] = system: BaF3-FLT3-ITD; assay: Anti-proliferation, BaF3 isogenic cell lines; assay type: cell-based
Description: as §3, §4

[8] = system: BaF3-FLT3-ITD-F691L; assay: Anti-proliferation, BaF3 isogenic cell lines; assay type: cell-based
Description: as §3, §4

[9] = system: BaF3-FLT3-D835Y; assay: Anti-proliferation, BaF3 isogenic cell lines; assay type: cell-based
Description: as §3, §4

[10] = system: BaF3-FLT3-ITD-D835Y; assay: Anti-proliferation, BaF3 isogenic cell lines; assay type: cell-based
Description: as §3, §4

[11] = target: FLT3 wt; set-up: method as in PMID 22037378; settings: cited from earlier work

Cc1[nH]nc2ccc(-c3cncc(OC[C@@H](N)Cc4ccccc4)c3)cc12 [A674563]
IC50 [1]: 134 nM | %G0–G1 ([2]; MV4-11, 0.3 μM): 68.69% | %G2–M ([2]; MV4-11, 0.3 μM): 2.61% | %S ([2]; MV4-11, 0.3 μM): 28.7% | %G0–G1 ([2]; MV4-11, 3 μM): 68.62% | %G2–M ([2]; MV4-11, 3 μM): 8.56% | %S ([2]; MV4-11, 3 μM): 22.82% | %G0–G1 ([3]; MOLM14, 0.3 μM): 47.08% | %G2–M ([3]; MOLM14, 0.3 μM): 11.27% | %S ([3]; MOLM14, 0.3 μM): 41.65% | %G0–G1 ([3]; MOLM14, 3 μM): 53.87% | %G2–M ([3]; MOLM14, 3 μM): 22.65% | %S ([3]; MOLM14, 3 μM): 23.49% | GI50 [4]: 2000 nM | GI50 [5]: 2600 nM | GI50 [6]: 1000 nM | GI50 [7]: 88 nM | GI50 [8]: 430 nM | GI50 [9]: 45 nM | GI50 [10]: 420 nM | Kd [11]: 540 nM
